This note sets out measurements from US11707448B2, “Combination therapies for the treatment of cancer” (Eisai R&D Management Co., Ltd., priority 2014, dated 2023).

Structures can show the parent of a compound that is named as a salt.

For this test, the system named is PAN02 pancreatic tumors. The test is described as follows: PAN02 pancreatic tumor model, ER-886046 with gemcitabine and radiation. The format is in vivo, mice. Particulars: gemcitabine single 40 mg/kg + RT single 6 Gy on day 27; first study (FIG. 10). The protocol:
FIG. 10. […] Antitumor activity of gemcitabine plus local radiation (RT) administered to PAN02 pancreatic tumors in C57BL/6 mice with or without ER-886046. Gemcitabine and RT dosing: a single 40 mg/kg dose of gemcitabine and a single 6 Gy dose of RT, was administered on day 27 post tumor cell injection. ER-8806046 was administered daily in an amount of 150 mg/kg from day 27 post tumor cell injection until the end of the study.
FIG. 11A to FIG. 11B. Additional experiments with combination therapy of ER-886046 and anti-metabolite chemotherapy with radiation compared to anti-metabolite chemotherapy with radiation alone. Panel shown in FIG. 11A) Gemcitabine and RT dosing: a single 40 mg/kg dose of gemcitabine and a single 6 Gy dose of RT, was administered on day 19 post tumor cell injection. ER-8806046 was administered daily in an amount of 150 mg/kg from day 19 post tumor cell injection until the end of the study. Panel shown in FIG. 11B) Gemcitabine and RT dosing: a single 40 mg/kg dose of gemcitabine and a single 6 Gy dose of RT, was administered on day 12 post tumor cell injection. ER-8806046 was administered daily in an amount of 150 mg/kg from day 12 post tumor cell injection until the end of the study. Average tumor sizes of mouse pancreatic PAN02 tumor-bearing mice that received vehicles, ER-886046, gemcitabine (gem) plus radiation (RT), ER-886046 plus RT, or ER-886046 plus gemcitabine and RT at indicated dosages and schedules. A and B represent each independent study. N=8-10 per group. NS, not significant; *, p<0.05; **, p<0.01; ***, p<0.001; and ****, p<0.0001, two-way ANOVA test.
Animal studies; In vitro cultured cancer cells were harvested and suspended in 100 μl of cold HBSS buffer at cell concentrations of 1.0×10^6 cells/ml (CT-26 cells) or of 1.0×10^7 cells/ml (PAN02 cells) and subcutaneously (sc) injected into the mice using a 26 g syringe on day 0. At the dates as indicated in the figures, the mice were randomized based on the tumor size followed by treatments with local radiation alone, gemcitabine alone (intravenous administration), ER-886046 alone (oral administration), or combinations of these treatments. […] The tumor sizes were measured twice a week by a digital caliber (Mitutoyo Corp), and the volume was calculated using the formula (1×w^2)/2=mm^3, where 1 and w refer to the larger and smaller perpendicular dimensions collected at each measurement. Graphs of group tumor sizes (mean±SEM) versus time were plotted using software GraphPad Prism 6 (Lake Forest, Calif.). Two way ANOVA was used for statistical calculation among the groups. N=8-10 in each treatment group.

In the case of `Nc1ccn([C@@H]2O[C@H](CO)[C@@H](O)C2(F)F)c(=O)n1` [gemcitabine, Gemcitabine hydrochloride, reference compound], the “tumor growth delay activity” value is “weak but statistically significant tumor growth delay activity”.
